The target in test [1] is Dual specificity protein kinase CLK1 (Homo sapiens) (UniProt P49759).
In test [2] the target is Serine/threonine-protein kinase RIO2 (Homo sapiens) (UniProt Q9BVS4).
Test [3] deals with Serine/threonine-protein kinase OSR1 (Homo sapiens) (UniProt O95747).
Test [4] deals with Serine/threonine-protein kinase pim-3 (Homo sapiens) (UniProt Q86V86).
Test [5] addresses STE20-like serine/threonine-protein kinase (Homo sapiens) (UniProt Q9H2G2).
Test [6] concerns the target Mitogen-activated protein kinase 6 (Homo sapiens) (UniProt Q16659).
Test [7] concerns the target T1, Lymphokine-activated killer T-cell-originated protein kinase (Homo sapiens) (UniProt Q96KB5).
T1 sequence (whole entry): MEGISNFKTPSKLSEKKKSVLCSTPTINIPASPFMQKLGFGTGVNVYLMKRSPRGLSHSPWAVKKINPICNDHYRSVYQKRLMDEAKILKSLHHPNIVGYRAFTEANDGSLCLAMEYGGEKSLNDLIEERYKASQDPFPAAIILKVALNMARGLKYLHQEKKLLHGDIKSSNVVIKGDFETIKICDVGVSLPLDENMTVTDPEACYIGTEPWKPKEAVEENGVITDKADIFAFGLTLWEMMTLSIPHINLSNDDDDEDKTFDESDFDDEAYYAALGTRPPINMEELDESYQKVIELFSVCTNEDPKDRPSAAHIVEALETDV

The target in test [8] is cAMP-dependent protein kinase catalytic subunit alpha (Homo sapiens) (UniProt P17612).
The target in test [9] is Casein kinase I isoform gamma-2 (Homo sapiens) (UniProt P78368).
The target of test [10] is Dual specificity protein kinase CLK2 (Homo sapiens) (UniProt P49760).
Test [11] deals with Dual specificity protein kinase CLK3 (Homo sapiens) (UniProt P49761).
The target in test [12] is Casein kinase I isoform gamma-3 (Homo sapiens) (UniProt Q9Y6M4).
Test [13] addresses Dual specificity mitogen-activated protein kinase kinase 2 (Homo sapiens, UniProt P36507).
Test [14] concerns the target Calcium/calmodulin-dependent protein kinase type 1D (Homo sapiens) (UniProt Q8IU85).
For test [15], the target named is T2, Serine/threonine-protein kinase PLK4 (Homo sapiens) (UniProt O00444).
T2 sequence (whole entry): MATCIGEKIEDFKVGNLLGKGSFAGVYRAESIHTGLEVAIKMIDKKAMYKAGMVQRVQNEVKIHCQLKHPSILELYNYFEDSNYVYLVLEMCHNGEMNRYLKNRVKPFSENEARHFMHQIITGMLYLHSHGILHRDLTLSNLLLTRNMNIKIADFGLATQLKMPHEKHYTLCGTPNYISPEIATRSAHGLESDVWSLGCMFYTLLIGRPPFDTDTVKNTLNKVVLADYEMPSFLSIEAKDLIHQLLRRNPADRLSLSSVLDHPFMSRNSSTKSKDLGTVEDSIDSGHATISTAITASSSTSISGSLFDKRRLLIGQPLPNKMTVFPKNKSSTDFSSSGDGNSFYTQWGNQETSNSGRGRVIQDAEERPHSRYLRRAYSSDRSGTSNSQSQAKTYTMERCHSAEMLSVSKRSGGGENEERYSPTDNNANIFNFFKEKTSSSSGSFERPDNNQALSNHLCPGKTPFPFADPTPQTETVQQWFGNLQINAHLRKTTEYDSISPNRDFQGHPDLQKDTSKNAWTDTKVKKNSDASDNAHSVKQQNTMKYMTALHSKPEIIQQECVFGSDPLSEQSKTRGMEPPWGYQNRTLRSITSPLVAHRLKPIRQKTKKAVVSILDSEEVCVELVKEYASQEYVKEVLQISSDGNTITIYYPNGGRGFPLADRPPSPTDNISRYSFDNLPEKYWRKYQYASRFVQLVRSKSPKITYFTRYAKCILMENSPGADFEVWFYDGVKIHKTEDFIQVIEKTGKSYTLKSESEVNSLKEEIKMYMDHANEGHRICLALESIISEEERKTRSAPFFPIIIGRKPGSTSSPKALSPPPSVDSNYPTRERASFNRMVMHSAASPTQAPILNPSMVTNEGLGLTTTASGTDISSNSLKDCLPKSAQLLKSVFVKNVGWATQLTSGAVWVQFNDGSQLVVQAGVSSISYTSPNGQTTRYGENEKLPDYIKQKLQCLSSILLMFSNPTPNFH

Test [16] addresses Cyclin-dependent kinase 16 (Homo sapiens) (UniProt Q00536).
Test [17] addresses T3, 3-phosphoinositide-dependent protein kinase 1 (Homo sapiens) (UniProt O15530).
T3 sequence (whole entry): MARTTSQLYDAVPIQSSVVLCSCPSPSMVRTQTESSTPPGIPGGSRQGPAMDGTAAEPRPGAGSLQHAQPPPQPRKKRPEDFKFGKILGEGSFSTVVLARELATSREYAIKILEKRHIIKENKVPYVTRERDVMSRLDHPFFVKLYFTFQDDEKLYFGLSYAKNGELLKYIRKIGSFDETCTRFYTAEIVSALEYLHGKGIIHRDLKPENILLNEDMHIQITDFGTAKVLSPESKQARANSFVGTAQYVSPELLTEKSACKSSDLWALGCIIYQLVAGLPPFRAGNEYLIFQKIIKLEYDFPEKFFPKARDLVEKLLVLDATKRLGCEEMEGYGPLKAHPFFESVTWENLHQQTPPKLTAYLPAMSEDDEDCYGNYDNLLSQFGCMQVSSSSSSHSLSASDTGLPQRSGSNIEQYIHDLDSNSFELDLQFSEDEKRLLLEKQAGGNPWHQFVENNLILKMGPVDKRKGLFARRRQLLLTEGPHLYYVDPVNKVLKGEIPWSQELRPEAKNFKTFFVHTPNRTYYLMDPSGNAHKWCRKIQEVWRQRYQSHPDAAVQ

Dual specificity protein kinase CLK1 (Homo sapiens), sequence (P49759 whole entry, looked up): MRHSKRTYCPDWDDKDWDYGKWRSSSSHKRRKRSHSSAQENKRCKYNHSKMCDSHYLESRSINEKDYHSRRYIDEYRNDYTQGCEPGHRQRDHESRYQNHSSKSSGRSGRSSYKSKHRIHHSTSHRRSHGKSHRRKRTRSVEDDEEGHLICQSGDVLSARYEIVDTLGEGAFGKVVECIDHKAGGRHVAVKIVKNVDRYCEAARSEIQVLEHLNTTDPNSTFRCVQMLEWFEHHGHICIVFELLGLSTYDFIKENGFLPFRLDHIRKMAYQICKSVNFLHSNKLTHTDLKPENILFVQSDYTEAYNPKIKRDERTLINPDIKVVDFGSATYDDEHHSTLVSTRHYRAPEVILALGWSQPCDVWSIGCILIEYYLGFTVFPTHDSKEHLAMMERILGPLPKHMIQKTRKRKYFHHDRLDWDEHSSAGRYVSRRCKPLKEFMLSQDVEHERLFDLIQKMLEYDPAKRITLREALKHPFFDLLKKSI
Dual specificity mitogen-activated protein kinase kinase 2, sequence (P36507 whole entry): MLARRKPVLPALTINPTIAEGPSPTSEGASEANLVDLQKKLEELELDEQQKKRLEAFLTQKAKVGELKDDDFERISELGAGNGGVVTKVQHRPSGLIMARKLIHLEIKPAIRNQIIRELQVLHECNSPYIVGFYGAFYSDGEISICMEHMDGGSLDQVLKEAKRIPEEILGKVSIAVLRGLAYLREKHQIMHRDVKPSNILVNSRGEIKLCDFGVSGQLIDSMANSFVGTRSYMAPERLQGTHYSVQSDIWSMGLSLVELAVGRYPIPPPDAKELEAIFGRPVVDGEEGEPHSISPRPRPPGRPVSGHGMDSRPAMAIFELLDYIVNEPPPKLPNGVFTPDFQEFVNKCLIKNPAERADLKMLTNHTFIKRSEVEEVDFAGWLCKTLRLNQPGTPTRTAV
Mitogen-activated protein kinase 6 (Homo sapiens), sequence (Q16659 whole entry): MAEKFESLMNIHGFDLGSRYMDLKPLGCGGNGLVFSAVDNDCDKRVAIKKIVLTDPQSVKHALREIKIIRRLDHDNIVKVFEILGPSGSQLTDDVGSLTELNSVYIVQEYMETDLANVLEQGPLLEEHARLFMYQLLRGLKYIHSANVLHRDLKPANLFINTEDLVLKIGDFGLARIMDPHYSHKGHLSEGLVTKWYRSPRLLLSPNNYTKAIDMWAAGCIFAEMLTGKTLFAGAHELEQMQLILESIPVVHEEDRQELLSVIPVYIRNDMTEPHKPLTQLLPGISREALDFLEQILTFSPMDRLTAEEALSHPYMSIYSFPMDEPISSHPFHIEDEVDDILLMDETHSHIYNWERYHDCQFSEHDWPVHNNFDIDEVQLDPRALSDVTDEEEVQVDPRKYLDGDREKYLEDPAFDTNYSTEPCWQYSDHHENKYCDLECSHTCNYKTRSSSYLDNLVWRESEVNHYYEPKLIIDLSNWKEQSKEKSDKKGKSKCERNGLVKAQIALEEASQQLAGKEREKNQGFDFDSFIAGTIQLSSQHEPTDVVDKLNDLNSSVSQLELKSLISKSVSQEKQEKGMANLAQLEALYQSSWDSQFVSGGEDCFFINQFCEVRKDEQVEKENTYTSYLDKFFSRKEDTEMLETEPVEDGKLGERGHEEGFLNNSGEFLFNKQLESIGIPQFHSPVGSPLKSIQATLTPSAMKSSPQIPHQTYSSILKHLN
Casein kinase I isoform gamma-3 (Homo sapiens), sequence (Q9Y6M4 whole entry, looked up, canonical isoform): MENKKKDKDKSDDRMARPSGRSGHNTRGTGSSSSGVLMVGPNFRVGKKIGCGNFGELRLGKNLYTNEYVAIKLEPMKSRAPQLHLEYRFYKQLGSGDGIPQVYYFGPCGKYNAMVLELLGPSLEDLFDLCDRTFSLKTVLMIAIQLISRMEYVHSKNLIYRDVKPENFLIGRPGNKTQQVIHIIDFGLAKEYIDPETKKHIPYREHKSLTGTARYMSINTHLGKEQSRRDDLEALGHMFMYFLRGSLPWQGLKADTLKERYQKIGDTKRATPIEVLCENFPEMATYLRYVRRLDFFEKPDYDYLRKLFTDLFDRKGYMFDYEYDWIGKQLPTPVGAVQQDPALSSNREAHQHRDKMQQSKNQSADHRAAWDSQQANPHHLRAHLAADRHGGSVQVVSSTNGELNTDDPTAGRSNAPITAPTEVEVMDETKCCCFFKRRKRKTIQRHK
Casein kinase I isoform gamma-2 (Homo sapiens), sequence (P78368 whole entry, looked up, canonical isoform): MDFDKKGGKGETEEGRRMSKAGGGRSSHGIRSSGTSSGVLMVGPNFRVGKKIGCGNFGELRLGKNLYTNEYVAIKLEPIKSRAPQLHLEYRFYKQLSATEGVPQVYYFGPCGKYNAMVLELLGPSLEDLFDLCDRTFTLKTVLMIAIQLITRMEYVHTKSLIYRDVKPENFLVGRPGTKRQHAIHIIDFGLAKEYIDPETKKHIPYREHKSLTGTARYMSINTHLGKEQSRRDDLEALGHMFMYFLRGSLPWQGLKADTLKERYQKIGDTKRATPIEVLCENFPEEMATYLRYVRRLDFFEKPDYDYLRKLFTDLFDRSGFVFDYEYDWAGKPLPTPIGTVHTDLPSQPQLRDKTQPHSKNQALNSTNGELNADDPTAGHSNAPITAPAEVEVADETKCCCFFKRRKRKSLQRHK
Serine/threonine-protein kinase OSR1 (Homo sapiens), sequence (O95747 2-527 limits assumed): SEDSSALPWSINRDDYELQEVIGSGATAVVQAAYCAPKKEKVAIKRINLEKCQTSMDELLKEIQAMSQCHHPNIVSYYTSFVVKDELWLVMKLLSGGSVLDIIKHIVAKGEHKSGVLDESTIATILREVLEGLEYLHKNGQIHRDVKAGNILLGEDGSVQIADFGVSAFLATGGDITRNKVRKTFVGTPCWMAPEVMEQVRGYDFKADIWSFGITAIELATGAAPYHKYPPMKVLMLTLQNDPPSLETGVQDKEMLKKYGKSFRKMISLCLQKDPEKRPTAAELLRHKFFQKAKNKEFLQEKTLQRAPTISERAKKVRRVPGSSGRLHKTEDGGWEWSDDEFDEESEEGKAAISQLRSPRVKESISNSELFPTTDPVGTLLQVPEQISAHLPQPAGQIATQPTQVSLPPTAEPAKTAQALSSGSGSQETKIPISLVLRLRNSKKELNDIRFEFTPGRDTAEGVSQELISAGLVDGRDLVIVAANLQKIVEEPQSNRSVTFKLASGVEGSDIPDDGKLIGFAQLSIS
Dual specificity protein kinase CLK2 (Homo sapiens), sequence (P49760 whole entry, looked up): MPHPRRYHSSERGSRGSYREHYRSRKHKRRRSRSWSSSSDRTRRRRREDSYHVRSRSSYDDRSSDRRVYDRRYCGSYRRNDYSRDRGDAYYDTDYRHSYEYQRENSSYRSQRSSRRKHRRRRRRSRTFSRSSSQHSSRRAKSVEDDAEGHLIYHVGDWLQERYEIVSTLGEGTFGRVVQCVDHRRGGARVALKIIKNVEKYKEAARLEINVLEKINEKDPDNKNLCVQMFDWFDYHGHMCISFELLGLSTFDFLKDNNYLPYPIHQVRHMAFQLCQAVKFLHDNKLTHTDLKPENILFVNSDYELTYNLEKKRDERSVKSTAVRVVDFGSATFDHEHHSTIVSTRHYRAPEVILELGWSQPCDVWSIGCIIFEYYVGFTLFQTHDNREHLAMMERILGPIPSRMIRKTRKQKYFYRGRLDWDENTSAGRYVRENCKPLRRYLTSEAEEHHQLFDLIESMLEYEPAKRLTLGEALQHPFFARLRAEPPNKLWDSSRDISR
Calcium/calmodulin-dependent protein kinase type 1D (Homo sapiens), sequence (Q8IU85 whole entry, looked up): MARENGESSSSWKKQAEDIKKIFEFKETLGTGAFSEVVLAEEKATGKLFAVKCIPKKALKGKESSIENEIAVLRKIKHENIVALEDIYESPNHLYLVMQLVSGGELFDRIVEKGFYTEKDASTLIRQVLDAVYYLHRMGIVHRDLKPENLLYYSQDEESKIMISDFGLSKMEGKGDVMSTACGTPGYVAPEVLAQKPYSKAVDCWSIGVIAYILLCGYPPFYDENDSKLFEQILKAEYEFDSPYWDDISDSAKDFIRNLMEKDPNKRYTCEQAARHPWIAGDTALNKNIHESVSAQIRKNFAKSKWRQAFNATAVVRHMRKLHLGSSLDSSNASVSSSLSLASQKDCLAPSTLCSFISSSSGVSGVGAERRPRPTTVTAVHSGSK
Cyclin-dependent kinase 16 (Homo sapiens), sequence (Q00536 whole entry): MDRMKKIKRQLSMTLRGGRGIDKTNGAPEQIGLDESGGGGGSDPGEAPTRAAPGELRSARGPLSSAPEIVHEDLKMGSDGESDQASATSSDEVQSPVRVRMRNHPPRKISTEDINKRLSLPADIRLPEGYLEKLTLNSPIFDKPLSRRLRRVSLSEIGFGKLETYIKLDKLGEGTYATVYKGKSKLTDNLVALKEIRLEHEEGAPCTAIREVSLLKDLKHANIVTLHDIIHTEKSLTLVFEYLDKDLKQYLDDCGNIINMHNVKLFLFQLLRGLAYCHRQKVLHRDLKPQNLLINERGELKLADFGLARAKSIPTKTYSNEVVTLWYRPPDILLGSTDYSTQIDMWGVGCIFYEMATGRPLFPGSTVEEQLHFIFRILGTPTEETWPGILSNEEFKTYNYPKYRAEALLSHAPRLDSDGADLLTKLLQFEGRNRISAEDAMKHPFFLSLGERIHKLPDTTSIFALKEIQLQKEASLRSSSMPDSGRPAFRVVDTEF

With `Cc1cc2ncc(-c3ccccc3)nc2cc1C`, the ΔTm in [1] was 1.4 °C; in test [2], -0.5 °C; in [3], 0.5 °C; in test [4], 0.5 °C; in test [5], 0.4 °C; in test [6], 1 °C. The ΔTm in test [7] is -0.6 °C; in test [8], 1.1 °C; in [9] it was 0.5 °C; in [10], 0.7 °C; in [11], 0 °C; in test [12] it was 1.1 °C. The thermal shift (ΔTm) is 0 °C in test [13]; 0.6 °C in test [14]; 0.1 °C in test [15]; 0.3 °C in test [16]; -0.1 °C in test [17].

On to `O=C1Nc2ccc(I)cc2/C1=C1/Nc2ccccc2/C1=N\O`, for which the ΔTm in [1] was 3.2 °C; in test [2] it was 2.5 °C; in test [3], -1.3 °C; in test [4], 6.3 °C; in [5] it was 3.7 °C; in [6] it was 0.5 °C. Moreover, the shift in melting temperature (ΔTm) in test [7] was -2.4 °C; in [8] it was -0.7 °C; in test [9], 1.9 °C; in test [10], 2.9 °C; in [11], 3.5 °C; in [12], 1.8 °C. Also, the ΔTm in test [13] is 6.4 °C; in test [14], 0.1 °C; in [15] it was 8.7 °C; in test [16], 5.6 °C; in test [17], -0.3 °C.

Take `Oc1cccc(-c2nc(N3CCOCC3)c3oc4ncccc4c3n2)c1`: the ΔTm in test [1] was 0.6 °C; in [2] it was -0.3 °C; in test [3], 2 °C; in [4], 0.6 °C; in [5] it was 0.3 °C; in test [6], 0.5 °C. The ΔTm in [7] turned out to be 0.5 °C; in test [8], 0.8 °C; in [9], 0.1 °C; in [10], 0 °C; in test [11] it was 0 °C; in [12], 0.1 °C. In addition, the ΔTm is 0.3 °C in test [13]; 0.4 °C in test [14]; 0.4 °C in [15]; -0.1 °C in [16]; 0.1 °C in test [17].

`O=C1Nc2ccc(I)cc2/C1=C\c1cc(Br)c(O)c(Br)c1`: the ΔTm in [1] was 1.3 °C; in test [2], -0.4 °C; in test [3], -0.4 °C; in test [4] it was 6 °C; in test [5] it was 2.2 °C; in test [6] it was 0.4 °C. Further, the ΔTm in test [7] was found to be 0.9 °C; in test [8], 1 °C; in [9], 1.1 °C; in [10] it was 1.2 °C; in test [11] it was 0.5 °C; in test [12], 0 °C. In addition, the ΔTm is 0.2 °C in [13]; -0.1 °C in test [14]; 1.3 °C in [15]; -0.4 °C in test [16]; -1 °C in test [17].

With `Nc1nccc(-c2c(-c3ccc(F)cc3)ncn2C2CCNCC2)n1`, the ΔTm came to 1.3 °C in [1]; 0.2 °C in test [2]; 0.3 °C in [3]; 0 °C in test [4]; 1.1 °C in test [5]; 0.3 °C in test [6]. The ΔTm was 0.5 °C in test [7]; 0.7 °C in test [8]; 2 °C in [9]; 0.3 °C in test [10]; 0.1 °C in test [11]; 2.4 °C in [12]. In addition, the ΔTm in test [13] is 0.1 °C; in [14], -0.2 °C; in test [15], 0.2 °C; in test [16], 0.5 °C; in test [17] it was -0.2 °C.

On to `Oc1ccc(-c2nc(-c3ccc(F)cc3)c(-c3ccncc3)[nH]2)cc1`, for which the ΔTm in test [1] is 0.8 °C; in [2], -0.3 °C; in [3] it was 0.9 °C; in test [4], 1.3 °C; in test [5], 4.4 °C; in test [6] it was 0.2 °C. Moreover, the ΔTm in test [7] is 0.3 °C; in test [8], 2.6 °C; in test [9] it was 0.8 °C; in test [10], 0.1 °C; in test [11], -0.1 °C; in test [12], 1.1 °C. Besides, the ΔTm is 0.9 °C in [13]; -0.1 °C in [14]; 1.1 °C in test [15]; -0.4 °C in test [16]; -1 °C in test [17].

`OC[C@H]1O[C@@H](n2cnc3cc(Cl)c(Cl)cc32)[C@H](O)[C@@H]1O`: the ΔTm in [1] was 3.1 °C; in test [2], 0.7 °C; in test [3], 0.4 °C; in test [4] it was 3.1 °C; in [5] it was 0.1 °C; in test [6], -0.1 °C. The thermal shift (ΔTm) amounted to 0.6 °C in [7]; 0.4 °C in test [8]; 0.6 °C in test [9]; 1.6 °C in test [10]; 1.4 °C in test [11]; 1 °C in test [12]. The ΔTm in test [13] was -0.3 °C; in test [14], 0 °C; in test [15], 0.5 °C; in [16] it was -0.3 °C; in test [17], 0.1 °C.

For `O=C1Nc2ccccc2/C1=C1/Nc2ccccc2/C1=N\O`, the ΔTm in test [1] was found to be 7.7 °C; in test [2], 5.7 °C; in test [3] it was 3.1 °C; in [4], 5.2 °C; in test [5], 4.7 °C; in [6], 0.4 °C. Also, the ΔTm in test [7] came to 0 °C; in test [8], 4 °C; in [9] it was 2.6 °C; in test [10], 7.8 °C; in test [11], 4 °C; in test [12], 2.7 °C. For the same compound, the ΔTm in test [13] is 5.9 °C; in test [14], 2.2 °C; in test [15], 10.9 °C; in [16], 8.9 °C; in test [17], 0.8 °C.

These data come from ChEMBL document CHEMBL1145498, “A systematic interaction map of validated kinase inhibitors with Ser/Thr kinases” (Proc Natl Acad Sci U S A, 2007).
